From patent US20240246960A1 (adMare Therapeutics Society, priority 2021, published 2024)

Tests used:
FaDu tumour xenograft [1] = assay: In vivo clonogenic survival (CS-ER), FaDu tumour xenografts ± radiation; settings: Rag2M mice
Method: FaDu tumour xenograft-bearing Rag2M mice were treated with single administrations of test compounds at indicated doses±radiation as indicated, at time 0.
Mice were irradiated at 1 h post compound administration (unless otherwise indicated), with 300 KV X-rays and a 10 mA current from a Precision XRAD 300 machine (USA) with a beam-hardening filter (2 mm Al+0.25 mm Cu+0.75 mm Sn) and an adjustable site to specimen distance (SSD) at a dose of 8-10 Gy, delivered at a rate of ˜1.05 Gy/min.
Mice were terminated at times after irradiation as indicated, and tumour tissues excised. A portion of tumour approximately 300-500 mg was briefly minced using sterile scissors and placed in a pre-weighed gentleMACS C tube (Miltenyi Biotec cat #130-093-237) and weighed with combined tumour+tube mass recorded. A 5 mL aliquot of enzyme cocktail comprising of trypsin/DNase/collagenase/EDTA-Na2 in PBS (1 mg/ml trypsin+0.26 mg/ml DNase+0.21 mg/ml collagenase+2 mM EDTA-Na2) was added to the tube, which is then run on the gentleMACS Dissociator disaggregation system. Tubes were then incubated at 37° C. and continually rotated for 20 min before again running on the gentleMACS Dissociator program. Samples were then diluted with 5 ml MEM medium containing 5% FBS and filtered (Falcon cell strainer 100 μm, cat #352360). After centrifugation (1100 rpm for 6 minutes at 4° C.) supernatant was aspirated and the cells resuspended in 4 ml cold growth medium (MEM+10% FBS)+50 ul DNase (5 mg/ml DNase solution). Cell numbers were counted from the same cell solution using a hemacytometer. Appropriate dilutions (control: 10,000 cells/ml; 8Gy: 400,000 cells/ml; drug+radiation treated; 500,000 cells/ml) were made and cells then plated in triplicate: control: 100 μl and 300 μl (1000 and 3000 cells/6 cm tissue culture plate); 8Gy: 30 μl, 105 μl and 350 μl (12000, 42000 cells/6 cm plates and 140000 cells/10 cm plate); drug+8Gy: 70 μl, 300 μl, 1.2 ml (35000 and 150000 cells/6 cm plates and 600000 cells/10 cm plates—only duplicate). Plates were incubated at 37° C. (in a 5% CO2, 5% O2 and balance N2 environment) for 14 days. For a final and accurate automated live-cell counting a solution of Hoechst33342 (0.01 mg/ml)+Propidium Iodide (0.004 mg/ml) in 0.9% saline was mixed with an appropriate cell number dilution of the samples in 96 well plates (50 ul staining solution+50 ul cell suspension of 10000 cells/ml) and images are taken of the wells and cell numbers are calculated by a computer program.
After 14 days plates were removed from the incubator, rinsed with PBS and stained with cold 2 g/L Malachite green oxalate salt solution (Sigma-Aldrich, cat #M6880) for 30 minutes at room temperature. Plates were rinsed with distilled water and dried. Pictures were obtained of the plates and colonies consisting of 50 or more cells were counted using a Stuart Scientific colony counter.
All plates with colonies were analyzed except when colony numbers were so high that the edges of individual colonies could not be determined accurately. Plating efficiency (PE) of each tumour sample was calculated first: PE is a ratio of the number of colonies to the number of cells seeded (sum of all the colonies countable in all the plates of the same sample divided by the sum of cells plated in the same plates). The PE of control tumours was averaged for the calculation of surviving fraction (SF): SF is based on the number of colonies formed in drug and/or radiation treated cells relative to that of untreated control (PE of treated tumor sample divided by PE of control). All treated data points were compared separately to the average of the controls. Finally, a Clonogenic Survival Enhancement Ratio (CS-ER) was calculated: the SF of irradiated control groups were divided by the SF of treatment groups to determine treatment group-specific CS-ER values, and these were assigned scores based on defined response ranges: values >6=A, 4-6=B, <4=C.

FaDu tumour xenograft [2] = assay: In vivo tumour growth delay (TGD-ER), FaDu tumour xenografts + radiation; settings: PO
Method: FaDu tumour xenograft-bearing animals were monitored for tumour growth and once average tumour size reached approximately 100-250 mm3, animals were assigned to treatment cohorts using stratified randomization. Animals were weighted and treated with doses of test compounds at 10, 30 or 100 mg/kg PO from 1, 3 or 10 mg/mL formulations at time 0.
For BID dosing regimens, at 8 h following the first injection, animals were again administered with test compound at the same dose as their previous administration. Animals were weighed and had tumours measured using calipers three times weekly until the endpoint of maximum tumour volume, 1000 mm3, was reached and animals were euthanized. Tumour volumes were calculated according to the equation L×W^2/2 with the length (mm) being the longer axis of the tumour; in the case that no tumour was palpable, tumour volumes were recorded as 0 mm^3.
Data were calculated as tumour growth normalized to day 0 measurements, with time to tumour doubling determined. Average time to tumour doubling for each group was used to determine a Tumour Growth Delay Enhancement Ratio (TGD-ER): the time to doubling for treatment groups were divided by the time to doubling for irradiation-alone groups to determine group-specific TGD-ER values, and these were assigned scores based on defined response ranges: values >2.5=A, 1-2.5=B, <1=C.

O=C(N[C@H]1CC[C@@H](Oc2nc(N3CCOCC3)cc3ncccc23)CC1)c1ccncc1 [Compound 113, N-((1s,4s)-4-((7-morpholino-1,6-naphthyridin-5-yl)oxy)cyclohexyl)isonicotinamide]
CS-ER Range Score (FaDu tumour xenograft [1]; 30 mpk + 8 Gy, 2 h): C (<4=C) | CS-ER Range Score (FaDu tumour xenograft [1]; 30 mpk + 8 Gy, 4 h): B (4-6=B)

O=C(N[C@H]1CC[C@@H](Oc2nc(N3CCOCC3)cc3ncccc23)CC1)c1ccnnc1 [Compound 121, N-((1s,4s)-4-((7-morpholino-1,6-naphthyridin-5-yl)oxy)cyclohexyl)pyridazine-4-carboxamide]
CS-ER Range Score (FaDu tumour xenograft [1]; 30 mpk + 8 Gy, 4 h): C (<4=C)

O=C(N[C@H]1CC[C@@H](Oc2nc(N3CCOCC3)cc3ncccc23)CC1)c1ncccn1 [Compound 123, N-((1s,4s)-4-((7-Morpholino-1,6-naphthyridin-5-yl)oxy)cyclohexyl)pyrimidine-2-carboxamide]
TGD-ER Range Score (FaDu tumour xenograft [2]; 10 mpk + 10 Gy): B (1-2.5=B) | TGD-ER Range Score (FaDu tumour xenograft [2]; 30 mpk + 10 Gy): B (1-2.5=B) | TGD-ER Range Score (FaDu tumour xenograft [2]; 100 mpk + 10 Gy): A (values >2.5=A) | TGD-ER Range Score (FaDu tumour xenograft [2]; (30 mpk + 2 Gy) Q5D): A (values >2.5=A) | TGD-ER Range Score (FaDu tumour xenograft [2]; (30 mpk) Q5D): C (<1=C) | CS-ER Range Score (FaDu tumour xenograft [1]; 100 mpk + 10 Gy, 0.5 h): C (<4=C) | CS-ER Range Score (FaDu tumour xenograft [1]; 100 mpk + 10 Gy, 4 h): A (values >6=A) | CS-ER Range Score (FaDu tumour xenograft [1]; 100 mpk + 10 Gy, 8 h): A (values >6=A) | CS-ER Range Score (FaDu tumour xenograft [1]; 100 mpk + 10 Gy, 24 h): A (values >6=A)

O=C(N[C@H]1CC[C@@H](Oc2nc(N3CCOCC3)cc3ncccc23)CC1)c1cc[nH]c1 [Compound 140, N-((1s,4s)-4-((7-morpholino-1,6-naphthyridin-5-yl)oxy)cyclohexyl)-1H-pyrrole-3-carboxamide]
TGD-ER Range Score (FaDu tumour xenograft [2]; 30 mpk BID + 10 Gy): C (<1=C) | CS-ER Range Score (FaDu tumour xenograft [1]; 30 mpk + 8 Gy, 4 h): B (4-6=B)

O=C(N[C@H]1CC[C@@H](Oc2nc(N3CCOCC3)cc3ncccc23)CC1)c1ncco1 [Compound 142, N-((1s,4s)-4-((7-morpholino-1,6-naphthyridin-5-yl)oxy)cyclohexyl)oxazole-2-carboxamide]
CS-ER Range Score (FaDu tumour xenograft [1]; 30 mpk + 8 Gy, 2 h): B (4-6=B) | CS-ER Range Score (FaDu tumour xenograft [1]; 30 mpk + 8 Gy, 4 h): B (4-6=B)

O=C(N[C@H]1CC[C@@H](Oc2nc(N3CCOCC3)cc3ncccc23)CC1)c1c[nH]cn1 [Compound 144, N-((1s,4s)-4-((7-morpholino-1,6-naphthyridin-5-yl)oxy)cyclohexyl)-1H-imidazole-4-carboxamide]
CS-ER Range Score (FaDu tumour xenograft [1]; 30 mpk + 8 Gy, 2 h): C (<4=C) | CS-ER Range Score (FaDu tumour xenograft [1]; 30 mpk + 8 Gy, 4 h): B (4-6=B)

CS(=O)(=O)Nc1cnc2cc(N3CCOCC3)nc(O[C@H]3CC[C@@H](Nc4ncccn4)CC3)c2c1 [Compound 185, N-(7-morpholino-5-(((1s,4s)-4-(pyrimidin-2-ylamino)cyclohexyl)oxy)-1,6-naphthyridin-3-yl)methanesulfonamide]
TGD-ER Range Score (FaDu tumour xenograft [2]; 10 mpk BID + 5 Gy): B (1-2.5=B) | TGD-ER Range Score (FaDu tumour xenograft [2]; 30 mpk BID + 5 Gy): B (1-2.5=B) | TGD-ER Range Score (FaDu tumour xenograft [2]; 100 mpk BID + 5 Gy): B (1-2.5=B) | CS-ER Range Score (FaDu tumour xenograft [1]; 30 mpk + 8 Gy, 4 h): B (4-6=B)

COc1cnc(N[C@H]2CC[C@@H](Oc3nc(N4CCOCC4)cc4ncc(NS(C)(=O)=O)cc34)CC2)nc1 [Compound 203, N-(5-(((1s,4s)-4-((5-methoxypyrimidin-2-yl)amino)cyclohexyl)oxy)-7-morpholino-1,6-naphthyridin-3-yl)methanesulfonamide]
CS-ER Range Score (FaDu tumour xenograft [1]; 30 mpk + 8 Gy, 2 h): B (4-6=B) | CS-ER Range Score (FaDu tumour xenograft [1]; 30 mpk + 8 Gy, 4 h): B (4-6=B)
